# Results from patent US20230048132A1, “CYCLIN-DEPENDENT KINASE INHIBITORS” (SPV THERAPEUTICS INC., priority 2018, published 2023).
# Experiment: Pharmacokinetics after oral administration
# Format: in vivo
# Conditions: rat, plasma, rats
# [1] = oral administration 100 mg/kg, N = 3
# Procedure: Nonclinical pharmacokinetic (PK) parameters of lead CDK4/6/9 inhibitors were determined in an intravenous (IV) and oral study (p.o.) conducted in rats. Lead compounds were each administered as a single oral dose at 100 mg/kg or by IV bolus via the caudal vein at the dose of 30 mg/kg. Blood samples were collected at 0.25, 0.5, 1, 2, 4, 8, 12, and 24 hours post i.v. administration, and at 1, 2, 4, 8, 24 and 48 hours post oral administration. Plasma was processed for drug concentration analysis using a validated LCMS/MS method, and PK parameters were calculated by using WinNonlin.
smiles,measurement,setting,value
"CN(C)CCOc1ccc(Nc2ncc3c(n2)N(C2CCCC2)C(=O)[C@]2(CCNC2=O)C3)cc1 [Example D179, (S)-8-cyclopentyl-2-((4-(2-(dimethylamino)ethoxy)phenyl)amino)-5,8-dihydro-7H-spiro[pyrido[2,3-d]pyrimidine-6,3′-pyrrolidine]-2′,7-dione]",bioavailability,"oral 100 mg/kg versus IV 30 mg/kg, read-out: BIOAVAILABILITY F",36.3%
same,AUC,[1],14200 ng·h/mL
same,Cmax,[1],3360 ng/mL
same,MRT,[1],2.99 h
same,half-life,[1],3.1 h
